Calls of active or inactive are those of the source. The rule behind the calls is not given here.
What was measured:
B16-F10 [1] = experiment: Inhibition of alpha-MSH-mediated melanin biosynthesis in mouse B16F10 cells at 25 uM after 24 hrs; assay type: functional, cell-based
[2] = Cytotoxicity against mouse B16F10 cells assessed as cell viability at 25 uM after 24 hrs by MTT assay relative to control; assay type: cell-based, B16-F10; settings: read-out: Activity
[3] = Cytotoxicity against mouse B16F10 cells assessed as cell viability at 5 uM after 24 hrs by MTT assay relative to control; assay type: cell-based, B16-F10; settings: read-out: Activity
B16-F10 [4] = experiment: Inhibition of alpha-MSH-mediated melanin biosynthesis in mouse B16F10 cells after 24 hrs; assay type: functional, cell-based
[5] = Cytotoxicity against mouse B16F10 cells assessed as cell viability at 10 uM after 24 hrs by MTT assay relative to control; assay type: cell-based, B16-F10; settings: read-out: Activity
[6] = target: T1, Tyrosinase (Mus musculus) (UniProt P11344); experiment: Inhibition of tyrosinase in alpha-MSH-stimulated mouse B16F10 cells assessed as L-DOPA oxidation after 24 hrs; assay type: cell-based; settings: B16-F10
T1 sequence (whole entry): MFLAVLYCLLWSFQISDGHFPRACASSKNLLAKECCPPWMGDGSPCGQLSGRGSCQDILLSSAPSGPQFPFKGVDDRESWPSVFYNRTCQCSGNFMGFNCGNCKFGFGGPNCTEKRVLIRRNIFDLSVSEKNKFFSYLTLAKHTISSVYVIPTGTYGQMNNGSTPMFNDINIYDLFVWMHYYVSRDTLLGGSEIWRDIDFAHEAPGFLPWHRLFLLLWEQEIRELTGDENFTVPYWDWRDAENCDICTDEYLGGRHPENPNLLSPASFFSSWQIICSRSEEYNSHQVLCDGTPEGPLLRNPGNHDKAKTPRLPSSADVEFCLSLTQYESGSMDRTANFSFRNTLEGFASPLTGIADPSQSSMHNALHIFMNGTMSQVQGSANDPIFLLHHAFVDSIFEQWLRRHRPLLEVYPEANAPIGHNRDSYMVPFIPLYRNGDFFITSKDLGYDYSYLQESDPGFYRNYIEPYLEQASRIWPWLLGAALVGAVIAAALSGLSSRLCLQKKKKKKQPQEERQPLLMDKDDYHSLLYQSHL

[7] = target: T2, Tyrosinase (Agaricus bisporus) (UniProt O42713); experiment: Competitive inhibition of mushroom tyrosinase using L-tyrosine as substrate assessed as dopachrome production after 30 mins by Lineweaver-Burk plot analysis
T2 sequence (whole entry): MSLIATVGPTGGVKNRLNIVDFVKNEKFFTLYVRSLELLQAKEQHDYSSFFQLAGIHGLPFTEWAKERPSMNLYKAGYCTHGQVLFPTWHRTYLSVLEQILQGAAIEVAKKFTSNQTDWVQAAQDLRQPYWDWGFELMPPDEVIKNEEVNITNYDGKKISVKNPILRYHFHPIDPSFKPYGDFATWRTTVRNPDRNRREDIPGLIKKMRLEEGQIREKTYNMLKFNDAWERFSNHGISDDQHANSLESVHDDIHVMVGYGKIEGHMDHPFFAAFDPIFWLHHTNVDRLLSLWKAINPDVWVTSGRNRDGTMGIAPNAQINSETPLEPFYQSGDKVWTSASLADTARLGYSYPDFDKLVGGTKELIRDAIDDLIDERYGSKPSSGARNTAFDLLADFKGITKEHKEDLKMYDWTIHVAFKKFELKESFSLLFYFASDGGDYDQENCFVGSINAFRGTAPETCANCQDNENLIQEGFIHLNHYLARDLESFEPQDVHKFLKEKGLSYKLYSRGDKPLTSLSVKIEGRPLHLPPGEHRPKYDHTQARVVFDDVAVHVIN

SMILES	inhibition (B16-F10 [1])	viability at 24 h, 25 µM [2]	viability at 24 h, 5 µM [3]	inhibition (B16-F10 [4])	viability at 24 h, 10 µM [5]	inhibition [6]	inhibition [7]
O=c1cc(CO)occ1O	Active	–	–	–	–	–	–
N#C/C(=C\c1ccc(O)c(O)c1)C(N)=O	–	96.9%	99.6%	Dose-dependent effect	98.6%	Dose-dependent effect	Dose-dependent effect
